Data as given in article PMC12067093, “Discovery and optimisation of a covalent ligand for TRIM25 and its application to targeted protein ubiquitination” (Chemical Science, 2025).

Experiments:
[1] = biological target: T1, BRD4 (ubiquitination by TRIM25) (Homo sapiens, UniProt O60885+Q14258); experiment: In vitro targeted protein ubiquitination time course assay for BRD4; type: biochemical; conditions: TRIM25 4 μM pre-labelled with compound 50 μM, 20 h, 4 °C, excess removed (HB1a 4 μM added directly); 60 min at 30 °C
T1 construct: Recombinant full-length BRD4 (short isoform); Full-length TRIM25 (4 μM) was pre-labelled with either DMSO or compound HB1, HB2 or HB3; made in house; host or cells: Sf9 insect cells (full-length TRIM25); UBA1 and UBCH5B were made as previously described
T1 sequence (Q14258 whole entry, other chains not shown, canonical isoform): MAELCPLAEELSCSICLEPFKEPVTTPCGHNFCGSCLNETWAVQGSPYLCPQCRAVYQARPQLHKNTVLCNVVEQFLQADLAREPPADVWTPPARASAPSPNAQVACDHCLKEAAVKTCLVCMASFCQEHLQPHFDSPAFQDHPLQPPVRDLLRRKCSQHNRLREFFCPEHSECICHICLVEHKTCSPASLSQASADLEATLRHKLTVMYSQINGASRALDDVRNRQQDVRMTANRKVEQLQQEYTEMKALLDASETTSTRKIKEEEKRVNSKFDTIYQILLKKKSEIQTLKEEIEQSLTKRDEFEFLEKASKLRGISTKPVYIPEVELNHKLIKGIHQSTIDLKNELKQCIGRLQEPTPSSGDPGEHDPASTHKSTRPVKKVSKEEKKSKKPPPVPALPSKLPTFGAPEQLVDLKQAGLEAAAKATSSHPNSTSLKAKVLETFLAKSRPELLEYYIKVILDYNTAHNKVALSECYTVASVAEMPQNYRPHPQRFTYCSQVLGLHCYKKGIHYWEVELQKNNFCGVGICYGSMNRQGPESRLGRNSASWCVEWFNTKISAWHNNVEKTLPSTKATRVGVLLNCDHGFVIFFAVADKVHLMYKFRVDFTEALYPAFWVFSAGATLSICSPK
Experimental: 1 containing 500 mM DTT (ThermoFisher Scientific, R0861). Timepoint at 0 min
2 indicates the sample taken prior to the addition of ATP. Samples were analysed by
3 SDS-PAGE and imaged by Coomassie staining, and using the Odyssey CLx Infrared
4 Imaging System (Li-Cor).
6 For targeted protein ubiquitination assays with compounds HB1 – HB3, His10-TRIM25
8 DMSO) or compound HB1, HB2 or HB3 (50 µM, 1% DMSO) in buffer 50 mM HEPES
9 pH 7.5, 150 mM NaCl, 0.5 mM TCEP for 20 h at 4 °C. Protein-compound complexes
11 capture buffer 50 mM Tris pH 7.5, 150 mM NaCl, 5 mM MgCl2, 20 mM imidazole, 0.5
12 mM TCEP, 0.5% IGEPAL for 2 h at 4 °C, with rotation. Beads were washed once with
13 capture buffer to remove excess unreacted compound. Ubiquitination assay reaction
14 mixture comprised components as described above, with the addition of 4 µM BRD4
15 substrate. For reaction with control compound HB1a (JQ1-2PEG), 4 µM HB1a was
16 added directly to the ubiquitination assay reaction mixture. Samples were analysed as
17 described above, and by western blotting against BRD4 (Abcam, ab128874, 1:1000),
18 which was detected by anti-rabbit-HRP secondary antibody (Dako, P0399, 1:2000).
19 Blots were developed in Amersham ECL Western Blotting Detection Reagent (Cytiva,
20 RPN2106), imaged on a ChemiDoc MP Imaging System (Bio-Rad), and bands were
21 analysed in ImageLab (Bio-Rad). […]

TRIM25 PRYSPRY = biological target: T2, TRIM25 PRYSPRY (Homo sapiens, UniProt Q14258); experiment: Intact protein LCMS covalent labelling of recombinant TRIM25 PRYSPRY; type: binding; conditions: TRIM25 PRYSPRY 10 μM, 4 °C; for TRIM25 PRYSPRY labelling: heterobifunctional compound 50 μM, 20 hours; for TRIM25 PRYSPRY labelling (%): purified compound 50 μM, 24 h
T2 construct: His6-TEV (cleaved yes); made in house; host or cells: Sf9 insect cells (baculovirus)
T2 sequence (Q14258 435-630): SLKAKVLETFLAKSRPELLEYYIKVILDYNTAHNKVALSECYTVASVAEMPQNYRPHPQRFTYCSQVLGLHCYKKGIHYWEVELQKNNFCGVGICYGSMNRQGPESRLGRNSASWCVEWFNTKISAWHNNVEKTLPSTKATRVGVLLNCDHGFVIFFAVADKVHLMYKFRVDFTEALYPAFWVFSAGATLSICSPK
Experimental: 1 resin (ThermoFisher Scientific, 89964), eluted in 100 mM HEPES pH 7, 500 mM NaCl,
2 300 mM Imidazole, 5% glycerol, 1 mM TCEP, and stored at -80 °C.
5 into a pET49 vector with a His6-HRV-3C (Human Rhinovirus) tag and expressed in
6 BL21 E.coli cells (Agilent Technologies; 230132), with induction at 18 °C overnight by
7 addition of isopropyl β-D-1-thiogalactopyranoside (0.5 mM). Cells were harvested by
8 centrifugation at 4000 rpm in a Beckman J6-M1 rotor for 30 min at 4 °C, the
9 supernatant was discarded and cell pellets were either immediately lysed, or stored at
10 -80°C. The protein was purified via His6-capture on HisPurTM Ni-NTA resin in buffer
11 50 mM HEPES pH 7.5, 300 mM NaCl, 0.5 mM TCEP, 20 mM imidazole, washed
12 extensively with both high salt buffer (50 mM HEPES pH 7.5, 1 M NaCl, 0.5 mM TCEP,
13 20 mM imidazole) and wash buffer (50 mM HEPES pH 7.5, 300 mM NaCl, 0.5 mM
14 TCEP, 20 mM imidazole) before elution in buffer 50 mM HEPES pH 7.5, 300 mM NaCl,
15 0.5 mM TCEP, 500 mM imidazole, and tag cleavage with HRV-3C protease. Cleaved
16 protein was further purified by ion exchange chromatography and size exclusion
17 chromatography into 20 mM HEPES pH 7.5, 150 mM NaCl, 0.5 mM TCEP, and stored
21 For the original chloroacetamide fragment screen, 0.25 μM TRIM25 PRYSPRY or
23 25 mM HEPES pH 7.5, 50 mM NaCl buffer. For intact protein liquid chromatography
24 mass spectrometry (LCMS) kinetic characterisation, 0.5 μM TRIM25 PRYSPRY was
25 used. For selectivity testing with recombinant ubiquitin system protein panel, 10 µM
27 7.5, 50 mM NaCl buffer. Samples were then diluted to 0.5 µM for TRIM25 PRYSPRY,
28 TRIM21 PRYSPRY, OTUD7B OTU, ZRANB1 OTU or 1 µM for TRIM2 NHL, UBCH5B,
29 UBC13K92A, UEV1A, OTUD4 OTU, before injection into the LCMS. For TRIM25
30 PRYSPRY mutants, and for labelling of heterobifunctional compounds, 10 µM protein
32 mM NaCl buffer, and samples were diluted to 1 µM protein before injection into the […]

Row | Structure (SMILES) | targeted ubiquitination of BRD4 by TRIM25 [1] | TRIM25 PRYSPRY labelling (TRIM25 PRYSPRY) | TRIM25 PRYSPRY labelling (%) (TRIM25 PRYSPRY)
1 | Cc1cc(C(=O)N2CCCN(C(=O)CCl)CC2)ccc1-c1cccc(C(=O)NCCOCCOCCOCCNC(=O)C[C@@H]2N=C(c3ccc(Cl)cc3)c3c(sc(C)c3C)-n3c(C)nnc32)c1 [HB2] | heterobifunctional compound-induced ubiquitination of BRD4 | 75% | 
2 | Cc1cc(C(=O)N2CCCN(C(=O)CCl)CC2)ccc1-c1cccc(C(=O)NCCOCCOCCNC(=O)C[C@@H]2N=C(c3ccc(Cl)cc3)c3c(sc(C)c3C)-n3c(C)nnc32)c1 [HB1] | heterobifunctional compound-induced ubiquitination of BRD4 | 49% | 
3 | Cc1cc(C(=O)N2CCCN(C(=O)CCl)CC2)ccc1-c1cccc(C(=O)NCCOCCOCCOCCOCCNC(=O)C[C@@H]2N=C(c3ccc(Cl)cc3)c3c(sc(C)c3C)-n3c(C)nnc32)c1 [HB3] | heterobifunctional compound-induced ubiquitination of BRD4 | 87% | 
4 | Cc1cc(C(=O)N2CCCN(C(=O)CCl)CC2)ccc1-c1ccccc1 [Compound 10] | no targeted ubiquitination of BRD4 was observed |  | 94%
5 | CC1Cc2ccccc2N1C(=O)C1CCCN(C(=O)CCl)C1 (stereo not drawn) [Compound 11] |  |  | 96%
